These results are taken from patent US6437146B1, “Oxazole compounds as prostaglandin e2 agonists or antagonists” (Fujisawa Pharmaceutical Co., Ltd., priority 1998, dated 2002).

Each structure is given as a SMILES string.

In assay [1] the target is T1, prostanoide receptor subtype (human EP4) (Homo sapiens, UniProt P35408).
T1 construct: expressed in transfected cells; host or cells: COS-7 cells (membrane fraction)
The experiment in a line: Binding assay using expression of prostanoide receptor subtype ([3H]-PGE2, membrane fraction of transfected COS-7 cells). Conditions: test compound 1.0 × 10^−7M; [3H]-PGE2 binding, COS-7 membrane, human EP4, 1 hour at 30° C. As to the method:
Binding Assay Using Expression of Prostanoide Receptor Subtype
The membrane fraction was prepared using COS-7 cells transfected prostanoide receptor subtype (human EP4).
The standard assay mixture contained membrane fraction, [^3H]-PGE2 in final volume of 0.25 ml was incubated for 1 hour at 30° C. The reaction was terminated by that the mixture was rapidly filtered through a glass filter (GF/B). Then the filter was washed by 4ml of ice-cold buffer at two times. The radioactivity associated with the filter was measured by liquid scintillation counting.
In the experiment for competition of specific [^3H]-PGE2 was added at a concentration of 10 μM. The following buffer was used in all reactions.
Buffer: 20 mM Mes (pH 6.0), 1 mM EDTA, 10 mM MgCl2

Assay [2] concerns Mesangial Proliferative Glomerulonephritis Model. The experiment in a line: Mesangial proliferative glomerulonephritis model (OX-7 mAb i.v.), urinary protein. The assay is classed as in vivo. Conditions: 24 h urine 1 day after OX-7, female Wistar rats, Normal 40.8 ± 2.3, Control 127.9 ± 12.6. The procedure: Methods of Mesangial Proliferative Glomerulonephritis Model
Female Wistar rats, 6 weeks old were purchased from SLC (Shizuoka, Japan). Glomerulosclerosis model was produced by intravenous injections (i.v.) of the monoclonal antibody (mAb), MRC OX-7 (Dainippon Co. Ltd., Osaka, Japan). The 8 weeks old rats were divided into 4 groups (10 rats/group). Group 1 was injected saline instead of OX-7 as a normal group and treated with vehicle (0.5% methylcellulose solution) only. Group 2 was also treated with the vehicle only after the injection of 1 mg/kg OX-7 as a control group. Group 3 and Group 4 were treated with N-benzylsulfonyl-3-{[(1S)-2-(4,5-diphenyloxazol-2-yl)-2-cyclohexen-1-yl]methyl}benzamide (Example 2-75), as shown in the following Table. The compound was orally given every day from 5 days before to one day after i.v. administration of the antibody. Urine was collected for 24 hours from the rats in metabolic cages 1 day after injection of OX-7 and the amount of protein in each sample was determined by the biuret method using bovine serum albumine as the standard. All the rats were sacrificed 2 days after injection of OX-7. Blood biochemical analysis was carried out. [drawing 11]

T1 sequence (P35408 whole entry): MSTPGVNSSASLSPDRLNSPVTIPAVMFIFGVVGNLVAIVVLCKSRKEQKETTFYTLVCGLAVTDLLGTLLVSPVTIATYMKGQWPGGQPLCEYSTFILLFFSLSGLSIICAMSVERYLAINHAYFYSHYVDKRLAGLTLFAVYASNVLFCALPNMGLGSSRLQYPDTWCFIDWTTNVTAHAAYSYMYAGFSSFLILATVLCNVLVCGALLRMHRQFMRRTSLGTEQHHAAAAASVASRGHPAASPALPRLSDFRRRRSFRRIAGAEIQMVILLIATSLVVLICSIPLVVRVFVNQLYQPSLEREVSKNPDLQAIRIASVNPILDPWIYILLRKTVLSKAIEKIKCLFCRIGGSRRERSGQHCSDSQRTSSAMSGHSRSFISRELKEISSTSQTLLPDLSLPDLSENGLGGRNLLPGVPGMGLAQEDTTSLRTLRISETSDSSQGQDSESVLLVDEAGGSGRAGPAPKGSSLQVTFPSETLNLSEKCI

For the molecule `O=C(NS(=O)(=O)Cc1ccccc1)c1cccc(C[C@@H]2CCCC=C2c2nc(-c3ccccc3)c(-c3ccccc3)o2)c1` [Example 2-75, N-benzylsulfonyl-3-{[(1S)-2-(4,5-diphenyloxazol-2-yl)-2-cyclohexen-1-yl]methyl}benzamide], in assay [1], the inhibition at 0.1 µM was at least 80%. Moreover, the “Urinary Protein” value in assay [2] (1 mg/kg orally every day from 5 days before to one day after OX-7) was found to be 98.2 ± 20.9 mg/day; in assay [2] (10 mg/kg orally every day from 5 days before to one day after OX-7), 66.4 ± 6.9 mg/day.

Turning to `O=C(NCC(O)c1ccccc1)c1cccc(C[C@@H]2CCC[C@H]2c2nc(-c3ccccc3)c(-c3ccccc3)o2)c1` (stereo partly drawn) [Example 1-47, N-[(2-hydroxy-2-phenyl)ethyl]-3-{[(1S,2R)-2-(4,5-diphenyloxazol-2-yl)-1-cyclopentyl]methyl}benzamide], the “Inhibition (%)” value in assay [1] was “≧80%”.

The molecule `O=C(NCC(c1ccccc1)c1ccccc1)c1cccc(C[C@@H]2CCC[C@H]2c2nc(-c3ccccc3)c(-c3ccccc3)o2)c1` [Example 1-50, N-(2,2-diphenylethyl)-3-{[(1S,2R)-2-(4,5-diphenyloxazol-2-yl)-1-cyclopentyl]methyl}benzamide] showed an inhibition at 0.1 µM in assay [1] of at least 80%.

In assay [1], `O=C(NOCc1ccccc1)c1cccc(C[C@@H]2CCCC=C2c2nc(-c3ccccc3)c(-c3ccccc3)o2)c1` [Example 2-46, N-benzyloxy-3-{[(1S)-2-(4,5-diphenyloxazol-2-yl)-2-cyclohexen-1-yl]methyl}benzamide] gave an inhibition at 0.1 µM of at least 80%.

For orientation: inhibition means the percentage by which the read-out fell short of the control. Read a high inhibition as a strong effect.
